Test: xn = mol fraction of the nth substance listed
Settings: Liquid, Vibrating tube method

CCC(C)Cl (stereo unspecified) [2-chlorobutane] + CCCCCCC
mass density [kg/m3]
Settings	283.15 K	293.15 K
100 kPa, x2 = 0.0524	870.08	859.09
100 kPa, x2 = 0.1018	857.33	846.5
100 kPa, x2 = 0.1968	834.23	823.7
100 kPa, x2 = 0.3006	810.89	800.7
100 kPa, x2 = 0.4029	789.62	779.7
100 kPa, x2 = 0.5017	770.58	760.98
100 kPa, x2 = 0.6008	752.78	743.44
100 kPa, x2 = 0.7023	735.82	726.75
100 kPa, x2 = 0.7977	720.94	712.09
100 kPa, x2 = 0.8986	706.28	697.66
100 kPa, x2 = 0.952	698.95	690.45
2000 kPa, x2 = 0.0524	872.12	861.28
2000 kPa, x2 = 0.1018	859.33	848.65
2000 kPa, x2 = 0.1968	836.28	825.79
2000 kPa, x2 = 0.3006	812.93	802.72
2000 kPa, x2 = 0.4029	791.64	781.78
2000 kPa, x2 = 0.5017	772.59	763.02
2000 kPa, x2 = 0.6008	754.76	745.47
2000 kPa, x2 = 0.7023	737.76	728.77
2000 kPa, x2 = 0.7977	722.86	714.07
2000 kPa, x2 = 0.8986	708.14	699.64
2000 kPa, x2 = 0.952	700.89	692.42
5000 kPa, x2 = 0.0524	875.14	864.55
5000 kPa, x2 = 0.1018	862.34	851.88
5000 kPa, x2 = 0.1968	839.19	828.97
5000 kPa, x2 = 0.3006	815.75	805.92
5000 kPa, x2 = 0.4029	794.46	784.93
5000 kPa, x2 = 0.5017	775.35	766.08
5000 kPa, x2 = 0.6008	757.49	748.48
5000 kPa, x2 = 0.7023	740.41	731.73
5000 kPa, x2 = 0.7977	725.51	716.99
5000 kPa, x2 = 0.8986	710.74	702.52
5000 kPa, x2 = 0.952	703.44	695.28
7000 kPa, x2 = 0.0524	877.15	866.63
7000 kPa, x2 = 0.1018	864.31	853.99
7000 kPa, x2 = 0.1968	841.13	831.06
7000 kPa, x2 = 0.3006	817.66	807.98
7000 kPa, x2 = 0.4029	796.31	786.88
7000 kPa, x2 = 0.5017	777.21	768.04
7000 kPa, x2 = 0.6008	759.32	750.4
7000 kPa, x2 = 0.7023	742.22	733.58
7000 kPa, x2 = 0.7977	727.32	718.82
7000 kPa, x2 = 0.8986	712.5	704.3
7000 kPa, x2 = 0.952	705.2	697.05
10000 kPa, x2 = 0.0524	880.01	869.74
10000 kPa, x2 = 0.1018	867.16	857.1
10000 kPa, x2 = 0.1968	844.01	834.15
10000 kPa, x2 = 0.3006	820.49	810.94
10000 kPa, x2 = 0.4029	799.08	789.81
10000 kPa, x2 = 0.5017	779.9	770.91
10000 kPa, x2 = 0.6008	761.96	753.22
10000 kPa, x2 = 0.7023	744.79	736.37
10000 kPa, x2 = 0.7977	729.85	721.59
10000 kPa, x2 = 0.8986	714.98	707.02
10000 kPa, x2 = 0.952	707.64	699.74
20000 kPa, x2 = 0.0524	889.1	879.38
20000 kPa, x2 = 0.1018	876.16	866.54
20000 kPa, x2 = 0.1968	852.83	843.5
20000 kPa, x2 = 0.3006	829.21	820.12
20000 kPa, x2 = 0.4029	807.66	798.87
20000 kPa, x2 = 0.5017	788.35	–
20000 kPa, x2 = 0.6008	770.29	–
20000 kPa, x2 = 0.7023	753.01	–
20000 kPa, x2 = 0.7977	737.95	–
20000 kPa, x2 = 0.8986	722.98	–
20000 kPa, x2 = 0.952	715.57	–
30000 kPa, x2 = 0.0524	897.39	–
30000 kPa, x2 = 0.1018	884.45	–
30000 kPa, x2 = 0.1968	860.93	–
30000 kPa, x2 = 0.3006	837.18	–
30000 kPa, x2 = 0.4029	815.5	–
30000 kPa, x2 = 0.5017	796.06	–
30000 kPa, x2 = 0.6008	777.85	–
30000 kPa, x2 = 0.7023	760.42	–
30000 kPa, x2 = 0.7977	745.22	–
30000 kPa, x2 = 0.8986	730.14	–
30000 kPa, x2 = 0.952	722.65	–
40000 kPa, x2 = 0.0524	905.09	–
40000 kPa, x2 = 0.1018	892.06	–
40000 kPa, x2 = 0.1968	868.43	–
40000 kPa, x2 = 0.3006	844.52	–
40000 kPa, x2 = 0.4029	822.78	–
40000 kPa, x2 = 0.5017	803.2	–
40000 kPa, x2 = 0.6008	784.86	–
40000 kPa, x2 = 0.7023	767.33	–
40000 kPa, x2 = 0.7977	751.95	–
40000 kPa, x2 = 0.8986	736.77	–
40000 kPa, x2 = 0.952	729.23	–
50000 kPa, x2 = 0.0524	912.23	–
50000 kPa, x2 = 0.1018	899.1	–
50000 kPa, x2 = 0.1968	875.41	–
50000 kPa, x2 = 0.3006	851.37	–
50000 kPa, x2 = 0.4029	829.44	–
50000 kPa, x2 = 0.5017	809.74	–
50000 kPa, x2 = 0.6008	791.3	–
50000 kPa, x2 = 0.7023	773.63	–
50000 kPa, x2 = 0.7977	758.16	–
50000 kPa, x2 = 0.8986	742.88	–
50000 kPa, x2 = 0.952	735.27	–
60000 kPa, x2 = 0.0524	918.92	–
60000 kPa, x2 = 0.1018	905.75	–
60000 kPa, x2 = 0.1968	881.9	–
60000 kPa, x2 = 0.3006	857.83	–
60000 kPa, x2 = 0.4029	835.76	–
60000 kPa, x2 = 0.5017	816	–
60000 kPa, x2 = 0.6008	797.44	–
60000 kPa, x2 = 0.7023	779.67	–
60000 kPa, x2 = 0.7977	764.09	–
60000 kPa, x2 = 0.8986	748.68	–
60000 kPa, x2 = 0.952	741.04	–
65000 kPa, x2 = 0.0524	922.13	–
65000 kPa, x2 = 0.1018	908.95	–
65000 kPa, x2 = 0.1968	885.12	–
65000 kPa, x2 = 0.3006	860.95	–
65000 kPa, x2 = 0.4029	838.88	–
65000 kPa, x2 = 0.5017	819	–
65000 kPa, x2 = 0.6008	800.38	–
65000 kPa, x2 = 0.7023	782.58	–
65000 kPa, x2 = 0.7977	766.97	–
65000 kPa, x2 = 0.8986	751.48	–
65000 kPa, x2 = 0.952	743.76	–

From the NIST ThermoML archive (doi:10.1016/j.tca.2015.06.017)
